This is an account of results in PMC6813295, “A tumour-selective cascade activatable self-detained system for drug delivery and cancer imaging” (Nature Communications, 2019).

Where a SMILES comes first, the peptide text is derived from it. The star is where a group is joined. X1 = CC1(C)C(=CC=C2CCCC(C=CC3=[N+](CCCCCC(=O)O)c4ccccc4C3(C)C)=C2*)N(CCCCCC(=O)O)c2ccccc21

For series [1], the system named is healthy female Balb/c nude mice. The experiment in a line: Toxicology evaluation (blood biochemistry, haematology, histology). Particulars: 14 mg/kg. The format is in vivo, mouse. As for the experimental part:
The healthy female Balb/c nude mice (6–8 weeks, n = 3) treated with molecule 1 was systematically investigated over 15 days. The mice were sacrificed after treatment with molecule 1 at a dose of 14 mg/kg on the 3rd, 7th and 15th day for blood collection. The blood biochemistry and haematology analyses were performed by Vital River Laboratory Animal Technology Co. Ltd. The histology evaluation was performed by Servicebio. All the toxicology evaluation was carried out in blind manner. […]
mg/kg, n=3) at 3, 7 and 15 d. The control group was healthy mice group without treatment. a, As major indicators of liver function, alanine aminotransferase (ALT), alkaline phosphatase (ALP) and aspartate aminotransferase (AST) levels were evaluated at different time point s. b, Total Protein (TP), albumin (ALB) and globulin (GLO) concentration and A/G (ALB/GLO) levels were evaluated at different time points. c, The creatinine (CRE) and blood urea nitrogen (BUN) levels, important indicators of kidney function, were evaluated at different time points. d, Time-course changes of haematology data, including i) white blood cells, ii) red blood cells, iii) haemoglobin, iv) mean corpuscular volume, v) mean corpuscular haemoglobin, vi) mean corpuscular haemoglobin concentration, vii) platelets and viii) haematocrit after treated with molecule 1 (14 mg/kg) treatment comparing with normal range (green backgrounds). Data are presented as mean ± s.d.
(n=3). e, Histology evaluation of the major organs (liver, spleen, kidney, heart and lung) were collected from the control group without treatment and molecule 1 treated (12 h post injection) group. Scale bars, 100 μm.

The next series deals with H460 tumour-bearing mice. Kind of series: Tumour penetration, distance from CD31-stained vessels in frozen tumour sections. It is filed as in vivo, mouse. As for the experimental part:
Fig. 5 Tumour penetrations of TCASS. a 3D reconstruction PA images of tumour-bearing mice injected with molecule 1, SiO2 nanoparticles (SiO2 NPs) and liposome labelled by Cy. The degrees of penetration into the tumour were calculated. To better illustrate the penetration extent of molecule 1, SiO2 nanoparticles (SiO2 NPs) and liposome labelled by Cy, the tumour tissue was divided into five parts with identical radius intervals, which indicated the trend from the tumour edge to the interior (the red dashed circles show the tumour margin, and the grey dashed circles show the normalized distance from the tumour edge). b Quantification of the PA signal intensity. The PA intensity in the intratumoural distribution area between neighbouring polygons was normalized by the corresponding area. Data are presented as the mean ± s.d. (n = 3). ***p < 0.001, p values were performed with one-way ANOVA followed by post hoc Tukey’s test for the indicated comparison. c Frozen sections of tumour removed after treatment with molecule 1, SiO2 NPs and liposome labelled by Cy for 12 h. The tumour cell nucleus and vessels were stained with DAPI and FITC-tagged CD31 antibody, respectively. d Quantification of the penetrative distance of molecule 1, SiO2 NPs and liposome labelled by Cy from the tumour vessels. Data are presented as the mean ± s.d. (n = 8). ***p < 0.001, p values were performed with one-way ANOVA followed by post hoc Tukey’s test for the indicated comparison. Scale bar: a 2 mm; c 50 μm
All animal experiments were performed as previously described. H460 cells were also subcutaneously implanted on the right flank of xenografts mice. After the tumour had developed, Molecule 1 (14 mg/kg, n = 3), liposome and SiO2 nanoparticles labelled by Cy (the same molar amount of Cy, n = 3) dissolved into PBS was intravenously injected through tail vein of mice. The control group was PBS at the same conditions. […] In order to quantify the PA signal intensity, the intratumoral distribution area was normalized with the tumour regions.

Consider `CC[C@H](C)[C@H](NC(=O)[C@@H]1CCCN1C(=O)[C@@H](NC(=O)[C@H](C)N)C(C)C)C(=O)N[C@@H](C)C(=O)N[C@@H](CCC(N)=O)C(=O)N[C@@H](CCCCN)C(=O)N[C@@H](CC(=O)O)C(=O)N[C@@H](CCC(=O)O)C(=O)N[C@H](C(=O)N[C@@H](CC(=O)O)C(=O)N[C@@H](CCCCN)C(=O)N[C@@H](CC(C)C)C(=O)N[C@H](C(=O)N[C@@H](Cc1ccccc1)C(=O)N[C@@H](Cc1ccccc1)C(=O)N[C@@H](C)C(=O)N[C@@H](CCC(=O)O)C(=O)N[C@@H](CSC1=C(C=CC2=[N+](CCCCCC(=O)O)c3ccccc3C2(C)C)CCCC1=CC=C1N(CCCCCC(=O)O)c2ccccc2C1(C)C)C(=O)NCC(=O)O)C(C)C)C(C)C` [molecule 1] (H-AVPIAQKDEVDKLVFFAEC(X1)G-OH), for which, in series [1], the “histology evaluation of organs” value was “slightly enlarged splenic corpuscle and expanded germinal centres”; the “signs of acute toxicity within 15 days” value is “did not notice any obvious signs of acute toxicity”. For the same molecule, in series [1] (days 3, 7 and 15, n = 3), the “creatinine (CRE) and blood urea nitrogen (BUN) levels” value is “within the normal range”; the “liver function markers (ALT, AST, ALP, albumin concentration)” value is “within reference normal ranges”. Further, in the series on H460 tumour-bearing mice (12 h post IV injection, 14 mg/kg or same molar amount of Cy, frozen sections, mean ± s.d. n = 8), the “penetrative distance of signal from the tumour blood vessels” value was “approximately 67.4 ± 10.3 μm”. In addition, in the series on H460 tumour-bearing mice (12 h post injection), the “penetration distance of molecule 1 relative to SiO2 nanoparticles” value is given as approximately 10 times and the “penetration distance of molecule 1 relative to liposomes” value was “approximately 13 times”.
